Where a name gives a salt, the structure may show the parent alone.
How the values were obtained:
[1] = tested on: human adult dermal fibroblasts HDFa; assay: HS and Lamp1 immunofluorescence in control fibroblasts HDFa; type: cell-based; conditions: 20 μM, 48 hours
Procedure: (§1) To verify whether the selected iminosugars could exert the same effects also on the fibroblasts of patients affected by Sanfilippo disease, human adult dermal fibroblasts HDFa (purchased from Sigma-Aldrich) were used as control, and fibroblasts of patients affected by Sanfilippo A and B (MPS IIIA and IIIB) were used as disease model.
(§2) Cells were cultured in the presence of the selected L-iminosugars at a dosage of 20 μM and after 48 hours were treated for HS and Lamp1 immunofluorescence. Treatment with L-iminosugars had no effect on control HDFa (Table 3).
(§3) Cells were grown in the presence of the iminosugars D-DNJ, D-NBDNJ, D-AMPDNM and D-MONDNJ at the dosage of 20 μM and after 48 hours were treated for HS and Lamp1 immunofluorescence. Treatment with D-iminosugars had no effect on HDFa and fibroblasts of patients affected by Sanfilippo A and B (MPS IIIA and MPS IIIB) both on HS and lysosome accumulation (Table 4).

[2] = tested on: fibroblasts of patients affected by Sanfilippo B (MPS IIIB); assay: HS and Lamp1 immunofluorescence in Sanfilippo B patient fibroblasts; type: cell-based, human; conditions: 20 μM, 48 hours
Description: as §1
(§4) The human cell lines, fibroblasts, from patients with MPS (Sanfilippo disease) used in the examples were obtained from the G. Gaslini Institute of Genoa, “Cell Line and DNA Biobank from Patients Affected by Genetic Diseases”-Telethon Genetic Biobank Network—Telethon research service. These cells are classified with identification codes and by type of disease without allowing patient identification. Cells were collected from the patients, at the Gaslini Institute, with informed consent to the collection extended to conservation and its possible use, for diagnosis and/or research purposes according to current legislation as required by the guidelines followed by the Telethon biobanks. The Network operates abiding by the Italian Privacy and Data Protection Laws in force, including: Italian Data Protection Authority, Personal Data Protection Code, Legislative Decree no. 196, 30 Jun. 2003, published in Official Gazette No. 174 of the Italian Republic, 29 Jul. 2003; Italian Data Protection Authority, General Authorization for the processing of genetic data, 24 Jun. 2011, published in Official Gazette No. 159 of Italian Republic, 11 Jul. 2011.
as §2, §3

[3] = tested on: NAGLU-silenced clone (cl5) of human neuroblastoma cell line SK-NBE; assay: Immunofluorescence against beta-amyloid peptide 1-42 in NAGLU-silenced SK-NBE clone; type: cell-based; conditions: 20 μM, 48 hours
Procedure: The clone (c15) stably silenced for NAGLU, the causative gene of MPS IIIB, is able to mimic the features of neurodegenerative diseases as it accumulates beta-amyloid fibers in the cytoplasm. In fact, Sanfilippo Syndrome is also defined as “childhood Alzheimer”.
The diseased clone (c15) was grown in the presence of L-DNJ, L-NBDNJ, L-AMPDNM and L-MONDNJ and the corresponding enantiomers D-DNJ, D-NBDNJ, D-AMPDNM and D-MONDNJ at a dosage of 20 μM and after 48 hours were processed by immunofluorescence against the beta-amyloid peptide 1-42. […] On contrary, treatment with the corresponding D-enantiomers has no effect on the reduction of the accumulation of amyloid fibers compared to the untreated clone (mock) (Table 7).

[4] = tested on: HeLa tumor epithelial cells; assay: HeLa cell proliferation assay; type: cell-based; conditions: after 48 hours
Procedure: Furthermore, treatment with the L-deoxyminosugars L-DNJ, L-NBDNJ, L-AMPDNM and L-MONDNJ caused a decrease of the number of HeLa cells after 48 hours as shown by the cell proliferation assay reported in Table 6.

[5] = tested on: fibroblasts of patients affected by Sanfilippo A (MPS IIIA); assay: HS and Lamp1 immunofluorescence in Sanfilippo A patient fibroblasts; type: cell-based, human; conditions: 20 μM, 48 hours
Description: as §1, §4, §2, §3

[6] = tested on: patients with MPS III; conditions: cited from earlier work
[7] = tested on: control clone (WT) of human neuroblastoma cell line SK-NBE; assay: Lamp1 immunofluorescence in control (WT) SK-NBE clone; type: cell-based; conditions: 20 μM, 48 hours
Description: (§5) To study the effects of the compounds on the lysosomal dysfunctions in a neuronal model of Sanfilippo B disease (MPS IIIB), we recently generated stable clones of the human neuroblastoma cell line SK-NBE silenced for the NAGLU gene causative of MPS IIIB [De Pasquale V, et al. (2021). Biochim Biophys Acta Mol Cell Res. 1868, 119113.]. Mimicking the features of Sanfilippo B disease, silencing of NAGLU causes accumulation of heparan sulfate and accumulation of lysosomes in the cytoplasm of stable SK-NBE clones compared to the control (WT) clone.
(§6) Therefore, NAGLU-silenced clone (c15) and control clone (WT) were selected to test the effect of L-deoxyminosugars (L-DNJ, L-NBDNJ, L-NNDNJ, L-HPDNJ, L-NPDNJ, L-AMPDNM and L-MONDNJ) in the hydrochloride form on the lysosomal phenotype of our cell model of Sanfilippo B (MPS IIIB).
(§7) Clone 5 was cultured in the presence of 20 μM of each L-deoxyminosugar under normal growth conditions and after 48 hours the lysosomal accumulation was evaluated with immunofluorescence technique by using a specific antibody against Lamp1 (lysosomal marker). […] Furthermore, upon treatment with the active L-deoxyminosugar the lysosomes are no longer concentrated in the perinuclear region of the cells, as occurs in several lysosomal diseases, but they are physiologically distributed throughout the cytoplasm.

[8] = tested on: NAGLU-silenced clone (cl5) of human neuroblastoma cell line SK-NBE; assay: Heparan sulfate (HS) immunofluorescence in NAGLU-silenced SK-NBE clone, Sanfilippo B model; type: cell-based; conditions: 48 hours
Description: as §5
Clone 5 was grown in the presence of 20 μM of each L-iminosugar under normal growth conditions and after 48 hours the accumulation of heparan sulfate (HS) was evaluated by immunofluorescence staining for HS.

[9] = tested on: NAGLU-silenced clone (cl5) of human neuroblastoma cell line SK-NBE; assay: Lamp1 immunofluorescence (lysosomal accumulation) in NAGLU-silenced SK-NBE clone, Sanfilippo B model; type: cell-based; conditions: 48 hours
Description: as §5, §6, §7

[10] = tested on: control clone (WT) of human neuroblastoma cell line SK-NBE; assay: Heparan sulfate (HS) immunofluorescence in control (WT) SK-NBE clone; type: cell-based; conditions: 20 μM, 48 hours
[11] = tested on: HeLa tumor epithelial cells; assay: HS immunostaining in HeLa cells; type: cell-based; conditions: 48 hours
Procedure: To test whether treatment with the selected L-deoxyminosugars (L-DNJ, L-NBDNJ, L-AMPDNM and L-MONDNJ) could interfere with HS synthesis we selected a cell line not mutated for NAGLU and highly decorated by heparan sulfate on the cell membrane. For this purpose, HeLa tumor epithelial cells (purchased from ATCC) were cultured for 48 hours in the presence of the selected L-iminosugars and the amount of HS was evaluated by immunostaining.

SMILES: CCCCN1C[C@H](O)[C@@H](O)[C@H](O)[C@H]1CO [D-NBDNJ•HCl]
- Cells positive for HS (%) [1]: 4.8%
- Cells positive for Lamp1 (%) [1]: 5.0%
- Cells positive for HS (%) ([2]; MPS-IIIB fibroblasts): 95.2%
- Cells positive for Lamp1 (%) ([2]; MPS-IIIB fibroblasts): 93.8%
- Relative amyloid fluorescence intensity [3]: 0.98
- Cell number [4]: 4.2 · 10^5
- Cells positive for HS (%) ([5]; MPS-IIIA fibroblasts): 99.7%
- Cells positive for Lamp1 (%) ([5]; MPS-IIIA fibroblasts): 94.7%
- Clinical efficacy in MPS III patients, in words [6]: no beneficial effects

SMILES: O=c1c(-c2ccc(O)cc2)coc2cc(O)cc(O)c12 [genistein]
- Clinical efficacy in MPS III patients, in words [6]: ineffective

SMILES: CCCCN1C[C@@H](O)[C@H](O)[C@@H](O)[C@@H]1CO [L-NBDNJ•HCl, N-butyl-L-deoxynojirimycin]
- Cells positive for Lamp1 (%) [7]: 2.6%
- Relative Lamp1 fluorescence intensity [7]: 1.07
- Relative fluorescence intensity compared to HDFa, HS [1]: 1.0
- Relative fluorescence intensity compared to HDFa, Lamp1 [1]: 1.0
- Relative fluorescence intensity compared to HDFa, HS ([2]; MPS-IIIB fibroblasts): 1.5
- Relative fluorescence intensity compared to HDFa, Lamp1 ([2]; MPS-IIIB fibroblasts): 1.0
- Effect on HS and lysosome (Lamp1) accumulation, in words ([2]; Sanfilippo B (MPS IIIB) patient fibroblasts): strong reduction
- Cells positive for HS (%) ([8]; cl5 clone, 20 μM): 7.4%
- Relative HS fluorescence intensity ([8]; cl5 clone, 20 μM): 1.13
- Effect on HS staining / HS accumulation, in words ([8]; clone 5, 20 μM): dramatic reduction
- Cells positive for Lamp1 (%) ([9]; cl5 clone, 20 μM): 20%
- Relative Lamp1 fluorescence intensity ([9]; cl5 clone, 20 μM): 0.97
- Effect on lysosomal enlargement and accumulation (lysosomal phenotype), in words ([9]; clone 5, 20 μM): dramatic reduction
- Relative amyloid fluorescence intensity [3]: 0.01
- Cells positive for HS (%) [10]: 2.5%
- Relative HS fluorescence intensity [10]: 0.96
- Effect on HS accumulation on the HeLa cell membrane, in words [11]: strong reduction
- Relative HS fluorescence intensity [11]: 0.26
- Cell number [4]: 3.6 · 10^5
- Effect on the number of HeLa cells, in words [4]: decrease
- Relative fluorescence intensity compared to HDFa, HS ([5]; MPS-IIIA fibroblasts): 1.7
- Relative fluorescence intensity compared to HDFa, Lamp1 ([5]; MPS-IIIA fibroblasts): 1.9
- Effect on HS and lysosome (Lamp1) accumulation, in words ([5]; Sanfilippo A (MPS IIIA) patient fibroblasts): strong reduction

From patent publication US20250255856A1, “THERAPEUTIC COMPOSITIONS WITH IMINO SUGARS FOR THE TREATMENT OF DISEASES WITH ACCUMULATION OF HEPARAN SULFATE” (priority 2022, published 2025)
